Patent US20210355106A1, “NEW AMINO-PYRIMIDONYL-PIPERIDINYL DERIVATIVES, A PROCESS FOR THEIR PREPARATION AND PHARMACEUTICAL COMPOSITIONS CONTAINING THEM” (LES LABORATOIRES SERVIER, priority 2018, published 2021)

Assays:
USP7 = target: T1, USP7 (Homo sapiens, UniProt Q93009, C315A); assay: Inhibition of USP7 by Fluorescence Intensity (FLINT) readings, Ubiquitin-Rhodamine-110 substrate; format: biochemical; settings: 0.25 nM His-His-USP7 (aa208-560), 60 minutes at 30° C. preincubation; Ki determined from IC50 according to Cer et al.
T1 construct: 0.25 nM His-His-USP7 (aa208-560, |C315A|) was incubated with compound; His-His (N)
T1 sequence (Q93009 208-560 C315A): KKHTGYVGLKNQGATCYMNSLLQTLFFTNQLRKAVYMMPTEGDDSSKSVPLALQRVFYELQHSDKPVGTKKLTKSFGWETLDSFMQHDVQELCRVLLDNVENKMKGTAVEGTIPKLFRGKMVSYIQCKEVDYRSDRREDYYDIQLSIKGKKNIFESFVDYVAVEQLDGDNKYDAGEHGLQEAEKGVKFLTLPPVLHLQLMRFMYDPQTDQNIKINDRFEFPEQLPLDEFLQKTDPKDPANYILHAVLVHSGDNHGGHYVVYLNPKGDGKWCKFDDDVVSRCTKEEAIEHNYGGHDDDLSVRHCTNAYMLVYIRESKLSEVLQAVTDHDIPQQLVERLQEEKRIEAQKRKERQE
In short: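 Kinetic rate of Rhodamine-110 release from ubiquitin substrate (50 nM or 4 μM), read every 3 min for 21 min, after 60 min, 30 °C preincubation of 0.25 nM USP7 catalytic domain C315A with compound. Bicine pH 8.0 buffer, 10% DMSO; 11-point IC50 vs DMSO and no-enzyme controls, converted to Ki.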

[1] = test system: Z138 mantle cell lymphoma tumour cell lines; assay: In vitro cytotoxicity, MTT assay; format: cell-based; settings: Homo sapiens, Z-138; Z138 cells, exposed to the test compounds for 96 hours
In short: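 MTT viability read-out: after 96 hours of compound treatment, Z138 mantle cell lymphoma cells received MTT for 4 hours, and formazan production was quantified by absorbance at 540 nm.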

Ki (USP7) [nM] | SMILES | IC50 [1] [nM]
9.33 | Cc1nc(C2CCC2)sc1C(=O)N1CC[C@@H](C(=O)N2CCC(O)(Cn3cnc(Oc4ccc(F)cc4)c(N)c3=O)CC2)[C@H](c2ccccc2)C1 [Example 165, 5-amino-3-[[1-[(3R,4R)-1-(2-cyclobutyl-4-methyl-thiazole-5-carbonyl)-3-phenyl-piperidine-4-carbonyl]-4-hydroxy-4-piperidyl]methyl]-6-(4-fluorophenoxy)pyrimidin-4-one] | 2.74
38.5 | Cc1nccc(CN2CC[C@@H](C(=O)N3CC[C@](O)(Cn4cnc(Oc5ccc(Cl)cc5)c(N)c4=O)C(F)(F)C3)[C@H](c3ccccc3)C2)n1 [Example 168] | 13.8
3.47 | Cc1ccc(-c2nc(C)c(C(=O)N3CC[C@@H](C(=O)N4CCC(O)(Cn5cnc(Oc6cccnc6)c(N)c5=O)CC4)[C@H](c4ccccc4)C3)s2)cn1 [Example 169] | 16.6
42.8 | Nc1c(Oc2ccc(F)cc2)ncn(CC2(O)CCN(C(=O)[C@@H]3CCN(C4(c5cccc(Cl)c5)COC4)C[C@H]3c3ccccc3)CC2)c1=O [Example 171] | 31.4
7.64 | Cc1nc(C2CCCNC2)sc1C(=O)N1CC[C@@H](C(=O)N2CCC(O)(Cn3cnc(Oc4ccc(F)cc4)c(N)c3=O)CC2)[C@H](c2ccccc2)C1 (stereo partly drawn) [Example 172, 5-amino-6-(4-fluorophenoxy)-3-[[4-hydroxy-1-[(3R,4R)-1-[4-methyl-2-(3-piperidyl)thiazole-5-carbonyl]-3-phenyl-piperidine-4-carbonyl]-4-piperidyl]methyl]pyrimidin-4-one] | 385
81.2 | COc1cc(Cl)cc(Oc2ncn(C[C@@]3(O)CCN(C(=O)[C@@H]4CCN(Cc5ccnc(C)n5)C[C@H]4c4ccccc4)CC3(F)F)c(=O)c2N)c1 [Example 175, 5-amino-6-(3-chloro-5-methoxy-phenoxy)-3-[[(4S)-3,3-difluoro-4-hydroxy-1-[(3R,4R)-1-[(2-methylpyrimidin-4-yl)methyl]-3-phenyl-piperidine-4-carbonyl]-4-piperidyl]methyl]pyrimidin-4-one] | 26.5
3.2 | Cc1ccc(-c2nccc(CN3CC[C@@H](C(=O)N4CC[C@](O)(Cn5cnc(Oc6ccc(F)cc6)c(N)c5=O)C(F)(F)C4)[C@H](c4ccccc4)C3)n2)cn1 [Example 176, 5-amino-3-[[(4S)-3,3-difluoro-4-hydroxy-1-((3R,4R)-1-{[2-(6-methyl-3-pyridyl)pyrimidin-4-yl]methyl]-3-phenyl-piperidine-4-carbonyl]-4-piperidyl]methyl]-6-(4-fluorophenoxy)pyrimidin-4-one] | 1.52
9.99 | Nc1c(Oc2ccc(F)cc2)ncn(C[C@@]2(O)CCN(C(=O)[C@@H]3CCN(Cc4ccnc(-c5ccccc5)n4)C[C@H]3c3ccccc3)CC2(F)F)c1=O [Example 177, 5-amino-3-[[(4S)-3,3-difluoro-4-hydroxy-1-[(3R,4R)-3-phenyl-1-[(2-phenylpyrimidin-4-yl)methyl]piperidine-4-carbonyl]-4-piperidyl]methyl]-6-(4-fluorophenoxy)pyrimidin-4-one] | 2.32
70.1 | COc1cc(Cl)cc(Oc2ncn(C[C@@]3(O)CCN(C(=O)[C@@H]4CCN(Cc5cnc(C)cn5)C[C@H]4c4ccccc4)CC3(F)F)c(=O)c2N)c1 [Example 178] | 31.8
5.58 | COc1cc(Oc2ncn(C[C@@]3(O)CCN(C(=O)[C@@H]4CCN(C(=O)c5sc(-c6ccc(C)nc6)nc5C)C[C@H]4c4ccccc4)CC3(F)F)c(=O)c2N)ccc1F [Example 179] | 1.34
40.4 | COc1cc(Oc2ncn(C[C@@]3(O)CCN(C(=O)[C@@H]4CCN(Cc5ccnc(C)n5)C[C@H]4c4ccccc4)CC3(F)F)c(=O)c2N)ccc1Cl [Example 182] | 9.95
37 | COc1cc(Oc2ncn(C[C@@]3(O)CCN(C(=O)[C@@H]4CCN(Cc5cnc(C)cn5)C[C@H]4c4ccccc4)CC3(F)F)c(=O)c2N)ccc1Cl [Example 183, 5-amino-6-(4-chloro-3-methoxy-phenoxy)-3-[[(4S)-3,3-difluoro-4-hydroxy-1-[(3R,4R)-1-[(5-methylpyrazin-2-yl)methyl]-3-phenyl-piperidine-4-carbonyl]-4-piperidyl]methyl]pyrimidin-4-one] | 9.5
7.28 | COc1cc(Oc2ncn(C[C@@]3(O)CCN(C(=O)[C@@H]4CCN(C(=O)c5sc(-c6ccc(C)nc6)nc5C)C[C@H]4c4ccccc4)CC3(F)F)c(=O)c2N)ccc1Cl [Example 184, 5-amino-6-(4-chloro-3-methoxy-phenoxy)-3-[[(4S)-3,3-difluoro-4-hydroxy-1-[(3R,4R)-1-[4-methyl-2-(6-methyl-3-pyridyl)thiazole-5-carbonyl]-3-phenyl-piperidine-4-carbonyl]-4-piperidyl]methyl]pyrimidin-4-one] | 3.96
13 | Cc1ncc(-c2nc(C)c(C(=O)N3CC[C@@H](C(=O)N4CC[C@](O)(Cn5cnc(Oc6ccc(F)cc6)c(N)c5=O)C(F)(F)C4)[C@H](c4ccccc4)C3)s2)cc1C(F)(F)F [Example 185, 5-amino-3-[[(4S)-3,3-difluoro-4-hydroxy-1-[(3R,4R)-1-[4-methyl-2-[6-methyl-5-(trifluoromethyl)-3-pyridyl]thiazole-5-carbonyl]-3-phenyl-piperidine-4-carbonyl]-4-piperidyl]methyl]-6-(4-fluorophenoxy)pyrimidin-4-one] | 7.65
69.9 | COc1cc(Oc2ncn(C[C@@]3(O)CCN(C(=O)[C@@H]4CCN(Cc5ccnc(C)n5)C[C@H]4c4ccccc4)CC3(F)F)c(=O)c2N)ccc1C1CC1 [Example 188, 5-amino-6-(4-cyclopropyl-3-methoxy-phenoxy)-3-[[(4S)-3,3-difluoro-4-hydroxy-1-[(3R,4R)-1-[(2-methylpyrimidin-4-yl)methyl]-3-phenyl-piperidine-4-carbonyl]-4-piperidyl]methyl]pyrimidin-4-one] | 69
11.1 | Cc1nc(C2CC(F)(F)C2)sc1C(=O)N1CC[C@@H](C(=O)N2CCC(O)(Cn3cnc(Oc4ccc(F)cc4)c(N)c3=O)CC2)[C@H](c2ccccc2)C1 [Example 189] | 6.34
12.4 | Cc1nc(C2CC(F)(F)C2)sc1C(=O)N1CC[C@@H](C(=O)N2CC[C@](O)(Cn3cnc(Oc4ccc(F)cc4)c(N)c3=O)C(F)(F)C2)[C@H](c2ccccc2)C1 [Example 190] | 6.82
17.7 | Cc1nc(C2CCOCC2)sc1C(=O)N1CC[C@@H](C(=O)N2CCC(O)(Cn3cnc(Oc4ccc(F)cc4)c(N)c3=O)CC2)[C@H](c2ccccc2)C1 [Example 191, 5-amino-6-(4-fluorophenoxy)-3-[[4-hydroxy-1-[(3R,4R)-1-(4-methyl-2-tetrahydropyran-4-yl-thiazole-5-carbonyl)-3-phenyl-piperidine-4-carbonyl]-4-piperidyl]methyl]pyrimidin-4-one] | 20.1
8.8 | Cc1nc(C2CCOCC2)sc1C(=O)N1CC[C@@H](C(=O)N2CC[C@](O)(Cn3cnc(Oc4ccc(F)cc4)c(N)c3=O)C(F)(F)C2)[C@H](c2ccccc2)C1 [Example 192, 5-amino-3-[[(4S)-3,3-difluoro-4-hydroxy-1-[(3R,4R)-1-(4-methyl-2-tetrahydropyran-4-yl-thiazole-5-carbonyl)-3-phenyl-piperidine-4-carbonyl]-4-piperidyl]methyl]-6-(4-fluorophenoxy)pyrimidin-4-one] | 8.48
9.23 | Cc1nc(C2CCCN(C)C2)sc1C(=O)N1CC[C@@H](C(=O)N2CCC(O)(Cn3cnc(Oc4ccc(F)cc4)c(N)c3=O)CC2)[C@H](c2ccccc2)C1 (stereo partly drawn) [Example 199, 5-amino-6-(4-fluorophenoxy)-3-[[4-hydroxy-1-[(3R,4R)-1-[4-methyl-2-(1-methyl-3-piperidyl)thiazole-5′-carbonyl]-3-phenyl-piperidine-4-carbonyl]-4-piperidyl]methyl]pyrimidin-4-one] | 34.1
30 | Cc1nccc(CN2CC[C@@H](C(=O)N3CCC(O)(Cn4cnc(Oc5ccc(CO)cc5)c(N)c4=O)CC3)[C@H](c3ccccc3)C2)n1 [Example 200] | 106
23.9 | Cc1cnc(CN2CC[C@@H](C(=O)N3CC[C@](O)(Cn4cnc(Oc5ccc(F)cc5)c(N)c4=O)C(F)(F)C3)[C@H](c3ccccc3)C2)cn1 [Example 201] | 7.5
21.8 | Nc1c(Oc2ccc(F)cc2)ncn(C[C@@]2(O)CCN(C(=O)[C@@H]3CCN(Cc4cnccn4)C[C@H]3c3ccccc3)CC2(F)F)c1=O [Example 202, 5-amino-3-[[(4S)-3,3-difluoro-4-hydroxy-1-[(3R,4R)-3-phenyl-1-(pyrazin-2-ylmethyl)piperidine-4-carbonyl]-4-piperidyl]methyl]-6-(4-fluorophenoxy)pyrimidin-4-one] | 11.7
47.1 | Nc1c(Oc2ccc(F)cc2)ncn(C[C@@]2(O)CCN(C(=O)[C@@H]3CCN(Cc4cccnn4)C[C@H]3c3ccccc3)CC2(F)F)c1=O [Example 203] | 33
36.5 | Nc1c(Oc2ccc(F)cc2)ncn(C[C@@]2(O)CCN(C(=O)[C@@H]3CCN(Cc4ncccn4)C[C@H]3c3ccccc3)CC2(F)F)c1=O [Example 204] | 26.9
35.8 | Cc1ccnc(CN2CC[C@@H](C(=O)N3CC[C@](O)(Cn4cnc(Oc5ccc(F)cc5)c(N)c4=O)C(F)(F)C3)[C@H](c3ccccc3)C2)n1 [Example 205] | 23.5
